Laboratory results reported in publication PMC5735191, “Computational and biological profile of boronic acids for the detection of bacterial serine- and metallo-β-lactamases” (Scientific Reports, 2017).
Several values for one entry are separate records, joined by “and”; a condition that tells them apart may be missing. Identical values can stand only once.

Experiments:
OXA-24 = target: T1, OXA-24 (Acinetobacter baumannii, UniProt Q8RLA6); assay: Enzyme inhibition assay (spectrophotometric, cephalothin reporter substrate); type: biochemical
T1 construct: GST (N, cleaved yes); made in house; host or cells: E. coli DH5α, pGEX-2T-OXA-24
T1 sequence (Q8RLA6 22-275 limits assumed): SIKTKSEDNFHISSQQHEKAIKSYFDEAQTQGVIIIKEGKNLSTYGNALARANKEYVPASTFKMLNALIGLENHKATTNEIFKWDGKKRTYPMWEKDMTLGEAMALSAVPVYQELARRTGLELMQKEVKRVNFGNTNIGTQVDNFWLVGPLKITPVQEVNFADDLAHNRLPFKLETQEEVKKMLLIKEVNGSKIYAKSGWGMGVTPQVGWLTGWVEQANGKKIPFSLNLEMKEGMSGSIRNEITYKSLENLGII
Experimental: (§1) To obtain a well-characterized inhibition profile for each selected boronic acids against each BLs in the panel, the compounds were tested for inhibitory activity. The protein panel included clinically- and epidemiologically-relevant β-lactamases, representatives of each structural class (A to D), as mentioned above. Each BL was overexpressed in E. coli, purified by chromatography and characterized as already reported. (SI, Table S1)[40]–[45].
(§2) Reactions were initiated with addition of BL enzyme (the concentration values for each BL enzyme into the SI, Table S1 have been reported).
(§3) From the resulting inhibition percentages at each different inhibitor concentration and, assuming a competitive inhibition for the boronic compounds panel, it was possible to calculate the IC50 values from the Dixon plot 1/V vs [I], using the equation IC50 = […][61], where v0 is the rate of hydrolysis of the reporter substrate (v0 being the rate measured in the absence of inhibitor), q the y axis intercept and m the slope of the resulting linear regression.

CTX-M-15 = target: T2, CTX-M-15 (Escherichia coli, UniProt Q9EXV5); assay: as above; type: biochemical; conditions: IC50 CTX-M-15, mean of two replicates, five inhibitor concentrations, Dixon plot; pH 7.5, 25 °C
T2 construct: made in house; host or cells: E. coli BL21(DE3), pET-9a derivative (pET-CTX-M-15)
T2 sequence (Q9EXV5 entry or part of it): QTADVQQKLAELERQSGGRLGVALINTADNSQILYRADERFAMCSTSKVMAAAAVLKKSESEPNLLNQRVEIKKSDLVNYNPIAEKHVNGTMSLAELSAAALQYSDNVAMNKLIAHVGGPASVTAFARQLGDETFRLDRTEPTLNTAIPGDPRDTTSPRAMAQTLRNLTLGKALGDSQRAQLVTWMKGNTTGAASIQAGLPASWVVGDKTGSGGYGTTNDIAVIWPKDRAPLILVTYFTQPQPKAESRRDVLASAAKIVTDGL
Experimental: as §1, §2, §3

AmpC β-lactamase = target: T3, AmpC β-lactamase (Pseudomonas aeruginosa, UniProt P24735); assay: as above; type: biochemical, P. aeruginosa; conditions: mean of two replicates, five inhibitor concentrations, Dixon plot, 100 μM cephalothin, pH 7.5, 25 °C
T3 construct: made in house; host or cells: E. coli BL21(DE3), plasmid pET-9aAmpC
T3 sequence (P24735 27-397): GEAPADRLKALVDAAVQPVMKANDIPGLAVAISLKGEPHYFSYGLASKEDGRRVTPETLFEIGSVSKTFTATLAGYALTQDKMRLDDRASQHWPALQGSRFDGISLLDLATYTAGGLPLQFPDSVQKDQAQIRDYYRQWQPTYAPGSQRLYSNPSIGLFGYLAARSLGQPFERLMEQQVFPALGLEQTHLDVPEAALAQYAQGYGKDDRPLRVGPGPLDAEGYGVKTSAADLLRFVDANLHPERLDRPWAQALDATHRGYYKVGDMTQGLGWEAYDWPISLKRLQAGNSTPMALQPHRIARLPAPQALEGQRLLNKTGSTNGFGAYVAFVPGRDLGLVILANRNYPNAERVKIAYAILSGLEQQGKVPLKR
Experimental: as §1, §2, §3

[1] = test system: CTX-M-15 E. coli clinical isolate; assay: Susceptibility testing (MIC), synergy with cefotaxime; type: cell-based; conditions: CTX-M-15 E. coli; antibiotic:inhibitor 1:1 (w/w)
Experimental: (§4) The minimum inhibitory concentrations (MICs), for CAZ and CTX alone and in combination with boronic acids against resistant strains were determined (Table 2a,b).
(§5) Susceptibility testing was performed in Mueller Hinton broth and interpreted following the guidelines of the National Committee for Clinical Laboratory Standards[70]. To test the inhibitory activity, the compounds were dissolved in DMSO, 50% in water, and further dilutions were performed using growth medium. In all cases tests were performed at a final DMSO concentration below 5%, avoiding unwanted DMSO inhibition effect on strains growth (blank test control with DMSO were performed). The MICs of cefotaxime and ceftazidime alone and in association were determined against several relevant Gram-negative clinical isolates, selected from the pathogen collection of the Spanish Network for Research in Infectious Pathology (REIPI; Spain). The selection was based on strains capability of producing β-lactamases of interest for the present study. The antibiotic:inhibitor ratio was 1:1 (w/w).

[2] = test system: KPC-2 K. pneumoniae clinical isolate; assay: as above; type: cell-based; conditions: for MIC of cefotaxime (CTX) in combination with compound: KPC-2 K. pneumoniae, antibiotic:inhibitor 1:1 (w/w)
Experimental: as §4, §5

[3] = test system: OXA-24 A. baumanii clinical isolate; assay: as above; type: cell-based; conditions: antibiotic:inhibitor 1:1 (w/w)
Experimental: as §4, §5

[4] = test system: VIM-2 P. aeruginosa clinical isolate; assay: as above; type: cell-based; conditions: antibiotic:inhibitor 1:1 (w/w)
Experimental: as §4, §5

[5] = test system: NDM-1 E. coli clinical isolate; assay: as above; type: cell-based; conditions: antibiotic:inhibitor 1:1 (w/w)
Experimental: as §4, §5

NDM-1 = NDM-1 (Klebsiella pneumoniae, UniProt C7C422); assay: Enzyme inhibition assay (spectrophotometric, cephalothin reporter substrate); type: biochemical; design: His-tag; made in house; host or cells: E. coli BL21(DE3), pET-15-NDM-1; conditions: mean of two replicates, five inhibitor concentrations, Dixon plot; pH 7.5, 25 °C
Sequence of NDM-1 (C7C422 29-270 limits assumed): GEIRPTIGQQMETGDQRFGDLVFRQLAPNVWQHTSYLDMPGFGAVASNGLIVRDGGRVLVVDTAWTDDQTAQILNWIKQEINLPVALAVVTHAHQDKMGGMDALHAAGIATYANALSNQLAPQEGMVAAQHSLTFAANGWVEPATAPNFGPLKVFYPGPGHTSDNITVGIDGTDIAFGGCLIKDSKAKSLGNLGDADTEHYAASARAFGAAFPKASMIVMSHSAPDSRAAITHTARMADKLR
Experimental: as §1, §2

[6] = test system: P. aeruginosa 148, overproduction chromosomal AmpC; assay: Susceptibility testing (MIC), synergy with ceftazidime; type: cell-based; conditions: antibiotic:inhibitor 1:1 (w/w)
Experimental: as §4, §5

[7] = test system: P. aeruginosa 12, overproduction chromosomal AmpC; assay: as above; type: cell-based; conditions: antibiotic:inhibitor 1:1 (w/w)
Experimental: as §4, §5

[8] = test system: P. aeruginosa 49, overproduction chromosomal AmpC; assay: as above; type: cell-based; conditions: antibiotic:inhibitor 1:1 (w/w)
Experimental: as §4, §5

[9] = test system: P. aeruginosa 199, overproduction chromosomal AmpC; assay: as above; type: cell-based; conditions: antibiotic:inhibitor 1:1 (w/w)
Experimental: as §4, §5

[10] = test system: P. aeruginosa 120, overproduction chromosomal AmpC; assay: as above; type: cell-based; conditions: antibiotic:inhibitor 1:1 (w/w)
Experimental: as §4, §5

[11] = test system: E. coli clinical isolate, overproduction chromosomal AmpC; assay: as above; type: cell-based; conditions: antibiotic:inhibitor 1:1 (w/w)
Experimental: as §4, §5

[12] = test system: E. cloacae clinical isolate, overproduction chromosomal AmpC; assay: as above; type: cell-based; conditions: for MIC of ceftazidime (CAZ) in combination with compound: overproduction chromosomal AmpC, antibiotic:inhibitor 1:1 (w/w)
Experimental: as §4, §5

[13] = test system: E. coli clinical isolate, plasmidic AmpC - DHA1; assay: as above; type: cell-based; conditions: for MIC of ceftazidime (CAZ) in combination with compound: E. coli, plasmidic AmpC - DHA1, antibiotic:inhibitor 1:1 (w/w)
Experimental: as §4, §5

[14] = test system: E. aerogenes clinical isolate, overproduction chromosomal AmpC; assay: as above; type: cell-based; conditions: antibiotic:inhibitor 1:1 (w/w)
Experimental: as §4, §5

KPC-2 = target: T4, KPC-2 (Klebsiella pneumoniae, UniProt Q9F663); assay: Enzyme inhibition assay (spectrophotometric, cephalothin reporter substrate); type: biochemical; conditions: mean of two replicates, five inhibitor concentrations, Dixon plot; pH 7.5, 25 °C
T4 construct: made in house; host or cells: E. coli BL21(DE3), pET9-KPC2
T4 sequence (Q9F663 25-293 limits assumed): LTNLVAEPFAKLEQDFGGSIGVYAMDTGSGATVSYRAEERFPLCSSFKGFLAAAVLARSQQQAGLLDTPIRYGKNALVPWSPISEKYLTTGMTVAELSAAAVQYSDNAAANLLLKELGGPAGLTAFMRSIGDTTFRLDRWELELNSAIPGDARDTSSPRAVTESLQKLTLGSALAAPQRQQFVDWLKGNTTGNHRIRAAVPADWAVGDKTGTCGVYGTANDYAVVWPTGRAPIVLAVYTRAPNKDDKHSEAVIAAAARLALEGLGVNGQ
Experimental: as §1, §2

VIM-2 = VIM-2 (Escherichia coli, UniProt Q5U7L7); assay: as above; type: biochemical; design: made in house; host or cells: E. coli BL21(DE3), pET9-VIM-2; conditions: mean of two replicates, five inhibitor concentrations, Dixon plot; pH 7.5, 25 °C
Experimental: as §1, §2

[15] = test system: CC(=O)OCC1=C(C(=O)O)N2C(=O)[C@@H](NC(=O)Cc3cccs3)[C@H]2SC1; assay: purified protein, by the assay type; conditions: 37.0 °C
[16] = other: β-lactam substrate of AmpC, enzyme 0.019 µM
[17] = other: β-lactam substrate of CTX-M-15, enzyme 0.067 µM
[18] = other: β-lactam substrate of OXA-24, enzyme 0.035 µM

| Compound | IC50 (OXA-24) | IC50 (CTX-M-15) | IC50 (AmpC β-lactamase) | MIC of cefotaxime (CTX) in combination with compound [1] | MIC of cefotaxime (CTX) in combination with compound [2] | MIC of cefotaxime (CTX) in combination with compound [3] | MIC of cefotaxime (CTX) in combination with compound [4] | MIC of cefotaxime (CTX) in combination with compound [5] | IC50 (NDM-1) | MIC of ceftazidime (CAZ) in combination with compound [6] | MIC of ceftazidime (CAZ) in combination with compound [7] | MIC of ceftazidime (CAZ) in combination with compound [8] | MIC of ceftazidime (CAZ) in combination with compound [9] | MIC of ceftazidime (CAZ) in combination with compound [10] | MIC of ceftazidime (CAZ) in combination with compound [11] | MIC of ceftazidime (CAZ) in combination with compound [12] | MIC of ceftazidime (CAZ) in combination with compound [13] | IC50 (KPC-2) | IC50 (VIM-2) | further results |
| --- | --- | --- | --- | --- | --- | --- | --- | --- | --- | --- | --- | --- | --- | --- | --- | --- | --- | --- | --- | --- |
| Cc1ccc2sc(B3OC(C)(C)C(C)(C)O3)cc2c1 [Compound 1] | 113 ± 14.6 µM | 6.4 ± 1.52 µM | 0.4 ± 0.08 µM | 64 µg/mL | 4 µg/mL | 64 µg/mL | 1024 µg/mL | 1024 µg/mL | 68.4 ± 14 µM | 8 µg/mL | 4 µg/mL | 4 µg/mL | 16 µg/mL | 4 µg/mL | 16 µg/mL | 64 µg/mL | 64 µg/mL | 5.9 ± 1.64 µM | 72 ± 14.7 µM | MIC reduction of CTX (fold) ([2]; K. pneumoniae producing KPC-2, CTX combination): 32 fold; MIC decrease of CAZ (fold) / synergy ([12]; CAZ combination): 4 fold; MIC reduction of CAZ (fold) ([13]; DHA-1-producing E. coli strain, CAZ combination): 8 fold; MIC of ceftazidime (CAZ) in combination with compound [14]: 4 µg/mL |
| CC1(C)OB(c2cc3cc(CBr)ccc3s2)OC1(C)C [Compound 2] | 93 ± 18.4 µM | 8.3 ± 1.09 µM | 0.2 ± 0.04 µM | 64 µg/mL | 4 µg/mL | 64 µg/mL |  | 1024 µg/mL | 64.6 ± 7.88 µM | 8 µg/mL | 4 µg/mL | 4 µg/mL | 16 µg/mL | 2 µg/mL | 16 µg/mL |  | 32 µg/mL | 4.7 ± 2.04 µM | 83.5 ± 3.35 µM | MIC of ceftazidime (CAZ) in combination with compound [14]: 4 µg/mL |
| NCc1ccc2sc(B(O)O)cc2c1 [Compound 3] | 132 ± 20.9 µM | 5.2 ± 1.42 µM | 0.16 ± 0.06 µM | 64 µg/mL | 4 µg/mL | 64 µg/mL | 8 µg/mL | 32 µg/mL | 60.7 ± 11.8 µM | 4 µg/mL | 64 µg/mL | 64 µg/mL | 64 µg/mL | 4 µg/mL | 16 µg/mL | 64 µg/mL | 512 µg/mL | 7.3 ± 1.82 µM | 26.9 ± 7.07 µM |  |
| CC(C)(C)OC(=O)c1cccc2cc(B3OC(C)(C)C(C)(C)O3)sc12 [Compound 4] | 38 ± 7.64 µM | 4.49 µM and 4.5 µM | 3.88 µM and 3.9 µM | 64 µg/mL | 4 µg/mL | 64 µg/mL | 1024 µg/mL | 1024 µg/mL | 35.7 ± 7.46 µM | 32 µg/mL | 32 µg/mL | 64 µg/mL | 64 µg/mL | 4 µg/mL | 512 µg/mL |  | 512 µg/mL | 8.22 µM and 5.4 µM | 20.2 ± 0.07 µM |  |
| CC(C)(C)OC(=O)Nc1cccc2cc(B(O)O)sc12 [Compound 6] | 88 ± 14 µM | 9.8 ± 3.34 µM | 4.4 ± 0.83 µM | 16 µg/mL | 4 µg/mL | 16 µg/mL |  | 64 µg/mL | 117 ± 9.72 µM | 64 µg/mL | 64 µg/mL | 64 µg/mL | 64 µg/mL | 4 µg/mL | 64 µg/mL | 64 µg/mL | 512 µg/mL | 2.25 µM and 2.3 µM | 103 ± 14.2 µM |  |
| AmpC (Pseudomonas aeruginosa PAO1) |  |  |  |  |  |  |  |  |  |  |  |  |  |  |  |  |  |  |  | Km [15, 16]: 33 ± 2 µM; kcat [15, 16]: 159 ± 32 s⁻¹; kcat/Km [15, 16]: 4.82e+06 M⁻¹ s⁻¹ |
| CTX-M-15 (Escherichia coli) |  |  |  |  |  |  |  |  |  |  |  |  |  |  |  |  |  |  |  | Km [15, 17]: 41 ± 3 µM; kcat [15, 17]: 35 ± 7 s⁻¹; kcat/Km [15, 17]: 850000 M⁻¹ s⁻¹ |
| OXA-24 (Acinetobacter baumannii) |  |  |  |  |  |  |  |  |  |  |  |  |  |  |  |  |  |  |  | Km [15, 18]: 20 ± 2 µM; kcat [15, 18]: 1000 ± 150 s⁻¹; kcat/Km [15, 18]: 5e+07 M⁻¹ s⁻¹ |
